Measurements reported in PMC4257840 (Journal of Medicinal Chemistry, 2014).
Read-outs that look alike come from different tables or passages of the source.

Key:
[1] = target: T1, Human liver cathepsin L (Homo sapiens, UniProt P07711); assay: Protease counter-screening: Cathepsin L; type: biochemical
T1 construct: Human liver cathepsin L was used as the; from tissue; host or cells: human liver

[2] = test system: Human pancreatic trypsin; assay: Protease counter-screening: Trypsin; type: biochemical; details: 10 µM
Procedure: (§1) Appendix 7. Protease Counter -Screening
(§2) Protease counter-screeni ng was performed using the methods described below. Initial screening was conducted in duplicate using a single test substance concentration of 10 µ M .
(§3) Additional assays were conducted in replicate for selected pairin gs of test s ubstance and enz yme in order to enable the determination of IC50 values using conventional procedures.
(§4) Determination of K i was made using the Batch K i program (Biokin Ltd, Pullman, WA) to derive values from the Morrison equation: […]
(§5) Where [E ] is the active enz yme concentration, Kiapp is the apparent inhibition const ant, v 0 is the control velocit y in the absence of inhibitors, vb is the background velocity, v is the initial reaction velocit y in the presence of inhibitor, and I is the inhibitor concentration.Thence:
Where [S ] is the substrate concentration and KM is the Michealis constant.
Caspase 1: Activity against human recombinant caspase 1 expressed in E. coli was tested using Ac-YVAD- AMC as the substrate. Test compound or vehicle was pre- incubated with 600 […]
followed by excitation/emission at 485/535 nm. […]
AMC formation was read at 360 nm/465 nm.
Cathepsin L2: Human recombinant cathepsin L2 expressed in NS0 cells was used as the enzyme source. […] Form ation of AMC was measured at 360 […]
The amount of AMC formed was read spectrofluorimetricall y at 360 nm/465 nm. […]

[3] = target: T2, Human recombinant dipeptidyl peptidase IV (Homo sapiens, UniProt P27487); assay: Protease counter-screening: Dipeptidyl Dipeptidase IV; type: biochemical
T2 construct: host or cells: insect Sf9 cells
Procedure: as §1, §2, §3, §4, §5
(§6) Where [S ] is the substrate concentration and KM is the Michealis constant. […]
Test compound or vehicle was pre- incubated with 600 […]
The reaction was […]
initiated by addition of 1 µM N-CH3-SO2-D-FGR-pNA for another 120 min incubation period. […]
Factor Xa: Test compound or vehicle was pre -incubated for 15 min at 25 °C in modified 50 mM Tris-HCl buffer pH 7.6 containing 0.4 nM Factor Xa from human plasma. The reaction was initiated by addition of 0.3 mM N-a-Z-D-RGR-pNA for another 60 min incubation period. The amount of pNA form ed was measur ed at 405 nm. […]

[4] = target: human liver Cat B (Homo sapiens, UniProt P07858); assay: Cathepsin B inhibition assay
Procedure: Inhibition of Cat B was measured as described with modifications.[25] […] Progress curves were followed at 30 °C by detection of fluorescence at 320/420 nm (excitation/emission).
(§7) In all cases, for reactions involving inhibitors, the amount of reaction buffer was adjusted to 60 μL, the inhibitor added as a 10 μL aliquot, and incubated for 20 min with the enzyme prior to reaction start.

[5] = target: T3, human recombinant caspase 3 (Homo sapiens, UniProt P42574); assay: Protease counter-screening: Caspase 3; type: biochemical
T3 construct: host or cells: E. coli
Procedure: as §1, §2, §3, §4, §5, §6
by addition of 50 µM Ac-DEVD-AMC for another 60 min incubation period. The amount of AMC formed was determined fluorimetricall y (excitation 360 nm/emission 465 nm). […]
by addition of 25 µM Ac-LEH D-A FC for another 60 min incubation period. The amount of amino-4- trifluorometh ylcoumarin (AFC) formed determined fluorimetrically (400nm/ 510nm).
Cathepsin C: Cathepsin C from bovine spleen was used as the source of enz yme. […] T he amount of AMC product formed was read spectrofluorimetrically

[6] = target: T4, Factor VIIa from human plasma (Homo sapiens, UniProt P08709); assay: Protease counter-screening: Factor VIIa; type: biochemical
T4 construct: incubated with 25 nM Factor VIIa from; from tissue; host or cells: human plasma
Procedure: as §1, §2, §3, §4, §5, §6
Test compound or vehicle was pre- incubated with 600
Factor VIIa: Test compound or vehicle was pre- incubated with 25 nM Factor VIIa from human plasma in modified 50 mM Tris-HCl buffer pH 7.6 for 15 min at 25 °C. The reaction was initiated by addition of 1 µM N-CH3-SO2-D-FGR-pNA for another 120 min incubation period.
The amount of pNA formed was read spectrophotometricall y at 405 nm. […]

[7] = target: recombinant human Cat S (Homo sapiens, UniProt P25774); assay: Cathepsin S inhibition assay; type: biochemical; details: Table S1 counter-screening; read-out: Cathepsin S IC50
recombinant human Cat S, sequence (P25774 115-331): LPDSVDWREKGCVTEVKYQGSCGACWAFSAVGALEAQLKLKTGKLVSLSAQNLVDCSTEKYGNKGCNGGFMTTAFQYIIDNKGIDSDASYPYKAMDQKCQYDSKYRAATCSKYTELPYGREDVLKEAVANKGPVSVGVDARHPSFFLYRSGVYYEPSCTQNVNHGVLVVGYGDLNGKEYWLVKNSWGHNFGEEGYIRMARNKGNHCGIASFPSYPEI
Procedure: as §7

T2 sequence (P27487 whole entry): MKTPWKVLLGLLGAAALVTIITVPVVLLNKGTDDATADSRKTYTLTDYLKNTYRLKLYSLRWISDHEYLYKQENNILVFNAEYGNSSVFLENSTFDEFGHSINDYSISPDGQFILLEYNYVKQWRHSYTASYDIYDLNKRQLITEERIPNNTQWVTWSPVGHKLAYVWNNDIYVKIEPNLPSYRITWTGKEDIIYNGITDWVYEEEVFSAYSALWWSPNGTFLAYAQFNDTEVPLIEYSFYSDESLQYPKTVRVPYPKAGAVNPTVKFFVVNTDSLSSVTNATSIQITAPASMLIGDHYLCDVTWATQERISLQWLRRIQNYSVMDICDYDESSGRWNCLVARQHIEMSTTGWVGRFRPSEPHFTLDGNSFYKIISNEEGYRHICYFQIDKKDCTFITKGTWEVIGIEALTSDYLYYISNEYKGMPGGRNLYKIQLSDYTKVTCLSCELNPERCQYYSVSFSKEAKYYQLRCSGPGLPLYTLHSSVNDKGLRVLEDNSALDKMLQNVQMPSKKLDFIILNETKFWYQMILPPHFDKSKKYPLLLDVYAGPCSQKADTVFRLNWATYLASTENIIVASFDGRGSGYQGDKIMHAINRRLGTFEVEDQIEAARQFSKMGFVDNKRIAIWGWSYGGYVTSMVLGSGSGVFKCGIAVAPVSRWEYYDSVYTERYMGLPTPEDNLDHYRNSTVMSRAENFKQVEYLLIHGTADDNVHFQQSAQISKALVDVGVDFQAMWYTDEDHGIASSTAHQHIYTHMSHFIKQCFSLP
T4 sequence (P08709 213-466 limits assumed): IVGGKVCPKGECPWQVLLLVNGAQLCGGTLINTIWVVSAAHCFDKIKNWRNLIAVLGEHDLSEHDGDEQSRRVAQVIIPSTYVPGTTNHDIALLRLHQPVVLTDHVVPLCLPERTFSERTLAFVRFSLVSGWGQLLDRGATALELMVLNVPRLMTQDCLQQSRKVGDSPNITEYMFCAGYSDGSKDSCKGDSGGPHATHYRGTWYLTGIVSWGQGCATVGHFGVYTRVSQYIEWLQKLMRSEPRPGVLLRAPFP
T4 sequence (P08709 61-212 limits assumed): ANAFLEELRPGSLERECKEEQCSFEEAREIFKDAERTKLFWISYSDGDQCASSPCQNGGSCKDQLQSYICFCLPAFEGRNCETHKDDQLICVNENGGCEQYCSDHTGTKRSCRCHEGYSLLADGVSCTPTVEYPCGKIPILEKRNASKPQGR
T1 sequence (P07711 114-333): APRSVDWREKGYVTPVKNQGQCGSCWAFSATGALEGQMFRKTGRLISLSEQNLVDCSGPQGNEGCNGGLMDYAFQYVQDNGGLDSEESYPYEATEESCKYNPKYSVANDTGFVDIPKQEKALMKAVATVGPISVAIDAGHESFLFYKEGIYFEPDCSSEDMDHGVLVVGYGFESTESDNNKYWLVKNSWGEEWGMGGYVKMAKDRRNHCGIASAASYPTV
T3 sequence (P42574 29-175 limits assumed): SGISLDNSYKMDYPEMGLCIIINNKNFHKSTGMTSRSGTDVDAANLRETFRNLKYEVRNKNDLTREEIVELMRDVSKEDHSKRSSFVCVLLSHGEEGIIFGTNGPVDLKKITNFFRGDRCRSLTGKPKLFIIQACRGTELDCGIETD
T3 sequence (P42574 176-277 limits assumed): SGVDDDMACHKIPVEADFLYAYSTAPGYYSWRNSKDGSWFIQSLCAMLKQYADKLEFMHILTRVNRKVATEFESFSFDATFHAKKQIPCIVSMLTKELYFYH

CC(C)[C@H](NC(=O)[C@H](C)NC(=O)[C@@H](NC(=O)c1ccccc1)C(C)(C)C)C(=O)C(=O)NCc1ccccc1 [Compound 38, N-{(S)-1-[(S)-1-((S)-1-Benzylaminooxalyl-2-methyl-propylcarbamoyl)-ethylcarbamoyl]-2,2-dimethyl-propyl}-benzamide]
inhibition at 10 µM [1]: 34%
Trypsin inhibition [2]: 9%
inhibition at 10 µM [3]: 0%
IC50 ([4]; read-out: Cat B IC50, mean ± SE): 512 ± 59 nM
IC50 ([4]; read-out: Cathepsin B IC50, Table S1 counter-screening): 510 nM
inhibition at 10 µM [5]: 1%
inhibition at 10 µM [6]: 1%
IC50 [7]: 170 nM
